Assay: clinical
Conditions: male, human, in vivo
Experimental: This study was conducted in accordance with Good Clinical Practice under the guidance of an Institutional Review Board and in accordance with applicable local legal and regulatory requirements.
KORLYM® was supplied in 300 mg tablets for oral administration. Three or four tablets were administered once daily (OD) to provide either the 900 mg or 1200 mg per day dose.
Itraconazole was supplied • in 100 mg capsules for oral administration. Two capsules were administered once daily (OD) to provide the 200 mg per day dose.
All drug administrations were oral and were given after the morning meal.
The inclusion criteria required, among other criteria, that the subjects be healthy male subjects between the ages of 18 and 65, weigh more than 110 pounds, and have a body mass index (BMI) of 18 to 32 kg/m^2. The design included a Screening Period of up to 3 weeks (subjects were screened at a time between days −21 to −1 prior to the first treatment period), three 14-day treatment periods, and a Follow-Up (FU) Period of 14 days for safety observation.
Subjects meeting the inclusion criteria (n=22) were administered drug daily and blood samples were taken on the days indicated below during Periods 1-3 and on day 43 of the follow-up period.
Subjects presented at the Clinical Research Unit (CRU) after an 8-hour overnight fast, then predose PK samples were taken and other evaluations (predose electrocardiograms (ECGs), plasma cortisol and ACTH, serum chemistry tests) were performed. […] On the specific days indicated above, additional blood draws for determining 24-hour PK profiles were performed.
Pharmacokinetic (PK) parameters measured and computed included AUC (area under the concentration−time curve), AUC0-24 (AUC values from time 0 to 24 hours postdose), Cmax (maximum concentration), and Css (average steady-state concentration, calculated as AUC0-24/24).

CC#C[C@]1(O)CC[C@H]2[C@@H]3CCC4=CC(=O)CCC4=C3[C@@H](c3ccc(N(C)C)cc3)C[C@@]21C [Mifepristone, 11β-(4-dimethylaminophenyl)-17β-hydroxy-17α-(1-propynyl)-estra-4,9-dien-3-one]
AUC(0-t) (900 mg): 59600 ng·h/mL | Cmax, Geometric Means (900 mg): 3550 ng/mL | AUC(0-24), Geometric Means (1200 mg): 67,700 | Cmax (1200 mg): 4360 ng/mL

Reference: patent publication US12097210B2, “Concomitant administration of glucocorticoid receptor modulators and CYP3A inhibitors” (Corcept Therapeutics, Inc., priority 2017, dated 2024)
